Where a SMILES comes first, the peptide text is derived from it. [ ]: non-standard residue; d: D form. The star is where a group is joined. Orn(α-tetramethylguanidino) = CN(C)C(=N[C@@H](CCCN)C(=O)*)N(C)C; Orn = NCCC[C@H](N)C(=O)O
Legend:
E. coli DSM 1103 = test: Transmission electron microscopy, morphological changes; assay type: cell-based, Escherichia coli; settings: 1 h
Experimental: Peptide-bacteria mixtures were fixed (2% glutaraldehyde, 5 mmol/L CaCl2, 10 mmol/L MgCl2 in 0.1 mol/L sodium cacodylate buffer, pH 7.4) overnight at 4°C. […] Samples were rinsed with distilled water (5 × 10 min), incubated with aqueous uranylacetate (0.5% w/v) for 1 h at 4°C, washed with distilled water (3 × 10 min), and embedded in Epon. The hardened blocks were sectioned (50 nm) on a UCT ultramicrotome (Leica, Vienna, Austria), stained with uranyl acetate and lead citrate on an AC20 system (Leica), and visualized at a Tecnai 12 electron microscope (FEI, Eindhoven, The Netherlands) at 80 kV. Morphological effects were quantified on average for 25 cells per condition.

in vitro = assay type: cell-based, human; settings: human
HEK293 cells = test: in vitro; assay type: cell-based, human; settings: 24 h
HeLa cells [1] = test: in vitro; assay type: cell-based; settings: 24 h
HeLa cells [2] = test: Flow cytometry, endocytosis inhibition with dynasore; assay type: cell-based; settings: dynasore 0.2 mmol/L 45 min, peptide 40 μmol/L 30 min
Experimental: Fresh colorless medium (150 μL) supplemented with either dynasore (0.2 mmol/L) dissolved in DMSO (final concentration of 0.2% v/v) or DMSO (0.2% v/v) as vehicle control was added. After 45 min (37°C) the supernatant was replaced by fresh medium supplemented with either dynasore or DMSO at the same concentrations (144 μL), Cf-labeled peptide added (6 μL, 1 mmol/L in water), and incubated (30 min, 37°C). Cells were fixed and stained with Hoechst 33342 as described above.
HeLa cells (50,000 for endocytosis inhibition and 70,000 for uptake kinetics) suspended in DMEM/F-12 medium (300 μL; see above) were seeded into 48-well plates (PS, sterile, flat bottom) and incubated (23 ± 1 h) using the conditions described above. Cells were washed twice with PBS (300 μL/well) and fresh medium was added (144 μL).
Cell cultures were prepared and incubated in the presence of dynasore, as described for microscopy. Cells were washed, treated with trypsin, and fixed as described above, dissolved in FACS buffer, and analyzed the same day.

CC[C@H](C)[C@H](NC(=O)[C@H](CCCN)N=C(N(C)C)N(C)C)C(=O)N[C@@H](CCCN)C(=O)N[C@H](C(=O)N[C@@H](CCCN)C(=O)N[C@@H](CCCNC(=N)N)C(=O)N1CCC[C@H]1C(=O)N[C@H](C(=O)N[C@@H](Cc1ccc(O)cc1)C(=O)N[C@@H](CCCN)C(=O)N1CCC[C@H]1C(=O)N[C@@H](CCCNC(=N)N)C(=O)N1CCC[C@H]1C(=O)N[C@@H](CCCNC(=N)N)C(=O)N1CCC[C@H]1C(=O)N1CCC[C@H]1C(=O)N[C@@H](Cc1c[nH]cn1)C(=O)N1CCC[C@H]1C(=O)N[C@@H](CCCNC(=N)N)C(=O)N[C@@H](CC(C)C)C(=O)O)C(C)C)[C@@H](C)CC [Api795, gu-O(IO)2RPVYOPRPRPPHPRL-OH] ({Orn(α-tetramethylguanidino)}-I[Orn]I[Orn]RPVY[Orn]PRPRPPHPRL-OH)
Cell: r, ruptured (E. coli DSM 1103; 8 µg/mL): 0%
DNA/Ribosomes relocalized (E. coli DSM 1103; 8 µg/mL): 0%
Fragments: +++, long and thick (E. coli DSM 1103; 8 µg/mL): 0%
Fragments: ++, long and thin (E. coli DSM 1103; 8 µg/mL): 23%
Fragments: +, small and thin (E. coli DSM 1103; 8 µg/mL): 63%
Fragments: -, no (E. coli DSM 1103; 8 µg/mL): 13%
Fragments: LV, large vesicles (E. coli DSM 1103; 8 µg/mL): 0%
Membrane: i, intact (E. coli DSM 1103; 8 µg/mL): 3%
Membrane: w, wrinkled (E. coli DSM 1103; 8 µg/mL): 97%
Vesicle release weak (E. coli DSM 1103; 8 µg/mL): 30%
Cell: r, ruptured (E. coli DSM 1103; 32 µg/mL): 0%
DNA/Ribosomes relocalized (E. coli DSM 1103; 32 µg/mL): 0%
Fragments: +++, long and thick (E. coli DSM 1103; 32 µg/mL): 0%
Fragments: ++, long and thin (E. coli DSM 1103; 32 µg/mL): 10%
Fragments: +, small and thin (E. coli DSM 1103; 32 µg/mL): 57%
Fragments: -, no (E. coli DSM 1103; 32 µg/mL): 33%
Fragments: LV, large vesicles (E. coli DSM 1103; 32 µg/mL): 0%
Membrane: i, intact (E. coli DSM 1103; 32 µg/mL): 7%
Membrane: w, wrinkled (E. coli DSM 1103; 32 µg/mL): 93%
Vesicle release weak (E. coli DSM 1103; 32 µg/mL): 43%
Cell: r, ruptured (E. coli DSM 1103; 128 µg/mL): 0%
DNA/Ribosomes relocalized (E. coli DSM 1103; 128 µg/mL): 0%
Fragments: +++, long and thick (E. coli DSM 1103; 128 µg/mL): 0%
Fragments: ++, long and thin (E. coli DSM 1103; 128 µg/mL): 30%
Fragments: +, small and thin (E. coli DSM 1103; 128 µg/mL): 53%
Fragments: -, no (E. coli DSM 1103; 128 µg/mL): 17%
Fragments: LV, large vesicles (E. coli DSM 1103; 128 µg/mL): 0%
Membrane: i, intact (E. coli DSM 1103; 128 µg/mL): 17%
Membrane: w, wrinkled (E. coli DSM 1103; 128 µg/mL): 83%
Vesicle release weak (E. coli DSM 1103; 128 µg/mL): 47%
Cell: r, ruptured (E. coli DSM 1103; 512 µg/mL): 0%
DNA/Ribosomes relocalized (E. coli DSM 1103; 512 µg/mL): 30%
Fragments: +++, long and thick (E. coli DSM 1103; 512 µg/mL): 0%
Fragments: ++, long and thin (E. coli DSM 1103; 512 µg/mL): 37%
Fragments: +, small and thin (E. coli DSM 1103; 512 µg/mL): 63%
Fragments: -, no (E. coli DSM 1103; 512 µg/mL): 0%
Fragments: LV, large vesicles (E. coli DSM 1103; 512 µg/mL): 0%
Membrane: i, intact (E. coli DSM 1103; 512 µg/mL): 33%
Membrane: w, wrinkled (E. coli DSM 1103; 512 µg/mL): 67%
Vesicle release weak (E. coli DSM 1103; 512 µg/mL): 60%
viability at 24 h, 0.6 g/L (in vitro): ~60%
IC50 on cell viability (HEK293 cells): >600 µg/mL
IC50 on cell viability (HeLa cells [1]): >600 µg/mL
Drop of GeoMean fluorescence (uptake) in the presence of dynasore vs vehicle control (HeLa cells [2]): 80%

From publication PMC4861708 (Frontiers in Cell and Developmental Biology, 2016)
